Reference: the NIST ThermoML archive (doi:10.1021/je700662a)
Several values for one entry are separate records, joined by “and”; a condition that tells them apart may be missing. Identical values can stand only once.

Experiments:
[1] = Molar enthalpy of transition or fusion; details: DSC
[2] = molar heat capacity at constant pressure; details: 101.33 kPa, Large sample (1 g) DSC
[3] = DTA

CCCCC(N)=O [pentanamide]
Details	Molar enthalpy of transition or fusion, Crystal 1	Molar enthalpy of transition or fusion, Crystal 2	Molar enthalpy of transition or fusion, Crystal 3 [kcal/mol]	Normal melting temperature, Crystal 1	Triple point temperature, Crystal 2	Triple point temperature, Crystal 3 [K]
[1]	4.28 kcal/mol and 4.61 kcal/mol	0.287 kcal/mol and 0.253 kcal/mol	0.454	–	–	–
[3]	–	–	–	104.1 °C and 103.6 °C	365 K and 365.4 K	211.8

[2]
Details	molar heat capacity at constant pressure [J/K/mol]
183 K, Crystal 3	111.5
188 K, Crystal 3	116.1
193 K, Crystal 3	118.5
198 K, Crystal 3	122.5
203 K, Crystal 3	128.9
208 K, Crystal 3	133.1
213 K, Crystal 2	139.1
218 K, Crystal 2	145.1
223 K, Crystal 2	154
228 K, Crystal 2	162.5
233 K, Crystal 2	175
238 K, Crystal 2	183.4
243 K, Crystal 2	195.4
248 K, Crystal 2	200.8
253 K, Crystal 2	199.8
258 K, Crystal 2	196.2
263 K, Crystal 2	191.6
268 K, Crystal 2	185.8
273 K, Crystal 2	189.4
278 K, Crystal 2	187.1
283 K, Crystal 2	188.4
288 K, Crystal 2	188.4
293 K, Crystal 2	190
298 K, Crystal 2	190.3
303 K, Crystal 2	192.6
308 K, Crystal 2	196.4
313 K, Crystal 2	198.4
318 K, Crystal 2	202.5
323 K, Crystal 2	204.5

CCCCCCCC(N)=O [octanamide]
Details	Molar enthalpy of transition or fusion, Crystal 1	Molar enthalpy of transition or fusion, Crystal 2	Molar enthalpy of transition or fusion, Crystal 3 [kcal/mol]	Normal melting temperature, Crystal 1	Triple point temperature, Crystal 2	Triple point temperature, Crystal 3 [K]
[1]	6.6 kcal/mol and 6.5 kcal/mol	0.232 kcal/mol and 0.237 kcal/mol	0.457	–	–	–
[3]	–	–	–	104 °C and 104.6 °C	304.5 K and 304.5 K	194.4

[2]
Details	molar heat capacity at constant pressure [J/K/mol]
183 K, Crystal 3	164.7
188 K, Crystal 3	169
193 K, Crystal 3	174.2
198 K, Crystal 2	180.6
203 K, Crystal 2	189.7
208 K, Crystal 2	197.1
213 K, Crystal 2	204.6
218 K, Crystal 2	213.2
223 K, Crystal 2	224.4
228 K, Crystal 2	228.2
233 K, Crystal 2	232.8
238 K, Crystal 2	234.3
243 K, Crystal 2	235.1
248 K, Crystal 2	236.3
253 K, Crystal 2	233.9
258 K, Crystal 2	236.1
263 K, Crystal 2	238.3
268 K, Crystal 2	235.4
273 K, Crystal 2	241.2
278 K, Crystal 2	242.7
283 K, Crystal 2	243.9
288 K, Crystal 2	244.9
293 K, Crystal 2	246.5
298 K, Crystal 2	245.1
303 K, Crystal 2	246.7
308 K, Crystal 1	249.3
313 K, Crystal 1	251.8

CCCC(N)=O [butanamide]
Details	Molar enthalpy of transition or fusion, [1] [kcal/mol]	Normal melting temperature, [3] [°C]
Crystal	4.59	114.2
Crystal 1	4.68	114.2

[2], Crystal
Details	molar heat capacity at constant pressure [J/K/mol]
183 K	96.4
188 K	98.3
193 K	101.7
198 K	104.1
203 K	106.4
208 K	108
213 K	109.7
218 K	112.5
223 K	114.3
228 K	116
233 K	118.1
238 K	120.8
243 K	123
248 K	125.9
253 K	127.4
258 K	130.2
263 K	132.4
268 K	135
273 K	136.8
278 K	139.3
283 K	141.5
288 K	143.7
293 K	146.4
298 K	147.7
303 K	150.3
308 K	153.5
313 K	155
318 K	158.8
323 K	161.4

CC(C)C(N)=O [2-methylpropanamide]
Crystal
Details	Molar enthalpy of transition or fusion	Normal melting temperature
[1]	4.59 kcal/mol and 4.61 kcal/mol	–
[3]	–	127.0 °C and 127.2 °C

[2], Crystal
Details	molar heat capacity at constant pressure [J/K/mol]
183 K	100.8
188 K	102.9
193 K	105
198 K	107.1
203 K	110.5
208 K	112.4
213 K	114
218 K	115.6
223 K	118.7
228 K	120.3
233 K	122.8
238 K	124.8
243 K	127.3
248 K	130.8
253 K	132.6
258 K	134.6
263 K	137.6
268 K	138.8
273 K	141.9
278 K	144.6
283 K	146.5
288 K	148.5
293 K	150.9
298 K	152.4
303 K	154.1
308 K	158
313 K	160.2
318 K	162.7
323 K	164.5

CCCCCCCCCCCCCCCCCCCCCC(N)=O [docosanamide]
Crystal
Details	Molar enthalpy of transition or fusion	Normal melting temperature
[1]	15.1 kcal/mol and 15.5 kcal/mol	–
[3]	–	110.2 °C and 111.8 °C

[2], Crystal
Details	molar heat capacity at constant pressure [J/K/mol]
228 K	420.4
233 K	431.8
238 K	439.8
243 K	449.2
248 K	461.3
253 K	470.1
258 K	480.5
263 K	493
268 K	500.2
273 K	511.9
278 K	523.7
283 K	539.7
288 K	548.1
293 K	561.1
298 K	568.7

CCCCCC(N)=O [hexanamide]
Details	Molar enthalpy of transition or fusion, [1]	Normal melting temperature, [3]	Triple point temperature, [3]
Crystal 1	3.99 kcal/mol and 4.21 kcal/mol	100 °C and 100 °C	–
Crystal 2	1.89 kcal/mol	–	305.1 K and 306 K

[2], Crystal 2
Details	molar heat capacity at constant pressure [J/K/mol]
183 K	119.1
188 K	121.1
193 K	126.6
198 K	128.6
203 K	132.5
208 K	135.8
213 K	138.8
218 K	142.1
223 K	146.7
228 K	150.8
233 K	155.3
238 K	160.1
243 K	165.6
248 K	169.6
253 K	173.1

CCCCCCCCCCCCCCCCCC(N)=O [octadecanamide]
Details	Molar enthalpy of transition or fusion, [1]	Normal melting temperature, [3]	Triple point temperature, [3] [K]
Crystal 1	13.1 kcal/mol and 13.2 kcal/mol	106.6 °C and 107 °C	–
Crystal 2	0.526 kcal/mol	–	298.7

[2], Crystal 2
Details	molar heat capacity at constant pressure [J/K/mol]
208 K	318.2
213 K	328.5
218 K	336.6
223 K	345.2
228 K	353.1
233 K	360.8
238 K	367.6
243 K	375.8
248 K	385.6
253 K	393.6
258 K	403.2

CC(C)(C)C(N)=O [2,2-dimethylpropanamide]
Crystal
Details	Molar enthalpy of transition or fusion	Normal melting temperature
[1]	5.76 kcal/mol and 6.12 kcal/mol	–
[3]	–	152.2 °C and 152.5 °C

[2], Crystal
Details	molar heat capacity at constant pressure [J/K/mol]
188 K	115.7
193 K	117.6
198 K	120.8
203 K	123
208 K	124.8
213 K	126.4
218 K	129.1
223 K	131.5
228 K	133.4
233 K	136.6
238 K	137.9
243 K	140.2
248 K	142.8
253 K	144.5
258 K	147.5
263 K	149.2
268 K	150.9
273 K	153.8
278 K	156.3
283 K	158.3
288 K	161.1
293 K	163
298 K	163.7
303 K	165.4
308 K	167.9
313 K	170.2
318 K	172.7
323 K	174.2

CCCCCCCCCCCC(N)=O [dodecanamide]
Details	Molar enthalpy of transition or fusion, [1]	Normal melting temperature, [3]	Triple point temperature, [3]
Crystal 1	8.68 kcal/mol and 8.53 kcal/mol	100.2 °C and 100.7 °C	–
Crystal 2	2.32 kcal/mol and 2.15 kcal/mol	–	321.1 K and 322 K

[2], Crystal 2
Details	molar heat capacity at constant pressure [J/K/mol]
198 K	213.3
203 K	217.8
208 K	223.3
213 K	227.1
218 K	231.8
223 K	237.5
228 K	242.2
233 K	245.9
238 K	251.2
243 K	258.4
248 K	263
253 K	269.2
258 K	274.3
263 K	280.8

CCCCCCCCCC(N)=O [decanamide]
Details	Molar enthalpy of transition or fusion, Crystal 1	Molar enthalpy of transition or fusion, Crystal 2	Molar enthalpy of transition or fusion, Crystal 3 [kcal/mol]	Normal melting temperature, Crystal 1	Triple point temperature, Crystal 2	Triple point temperature, Crystal 3
[1]	3.61 kcal/mol and 4.16 kcal/mol	4.49 kcal/mol and 5.04 kcal/mol	0.251	–	–	–
[3]	–	–	–	97.5 °C and 97.8 °C	366.3 K and 366.9 K	218.7 K and 218.7 K

[2], Crystal 2
Details	molar heat capacity at constant pressure [J/K/mol]
263 K	236.4
268 K	238.5
273 K	247.6
278 K	251.1
283 K	260.7
288 K	266.4
293 K	270.2
298 K	272.4
303 K	278.5
308 K	287
313 K	291.6
318 K	297.9
323 K	304.4

CCC(N)=O [propanamide]
Crystal
Details	Molar enthalpy of transition or fusion [kcal/mol]	Normal melting temperature [°C]
[1]	3.08	–
[3]	–	79.5

CCCCCCCCCCCCCCCC(N)=O [hexadecanamide]
Details	Molar enthalpy of transition or fusion, [1]	Normal melting temperature, [3]	Triple point temperature, [3]
Crystal 1	10.9 kcal/mol and 10.8 kcal/mol	103 °C and 102.5 °C	–
Crystal 2	2.49 kcal/mol and 2.46 kcal/mol	–	355.5 K and 356.1 K

[2], Crystal 2
Details	molar heat capacity at constant pressure [J/K/mol]
208 K	267.5
213 K	273.7
218 K	276.5
223 K	282.8
228 K	289
233 K	297.1
238 K	302.6
243 K	310.3
248 K	319.5
253 K	323.8
258 K	331.6
263 K	340.1
268 K	348.1
273 K	357.9
278 K	364.8
283 K	371.6
288 K	378.1
293 K	387.6
298 K	394.3
303 K	401.8
